From the NIST ThermoML archive (doi:10.1016/j.jct.2016.04.023)
Numbers after ± are expanded uncertainties.

Test: Boiling temperature at pressure P
Conditions: Liquid, DSC

| Structure (SMILES) | Boiling temperature at pressure P (3.47 kPa) [°C] | also measured |
| --- | --- | --- |
| CCCC(=O)OCC(COC(=O)CCC)OC(=O)CCC [1,2,3-propanetriyl tributanoate] | 201.40 ± 1.9 | – |
| CCCCCCCCCCCCCCCCCCO [1-octadecanol] | 225.89 ± 1.8 | – |
| CCCCCCCC(=O)OCC(O)CO (stereo unspecified) [2,3-dihydroxypropyl octanoate] | 211.90 ± 1.9 | – |
| OCC(O)CO [glycerol] | 186.13 ± 1.7 | – |
| CCCCCCCCCCCCCCCC [hexadecane] | 170.91 ± 2.5 | Boiling temperature at pressure P (10.37 kPa): 200.90 ± 1.7 °C; Boiling temperature at pressure P (15.17 kPa): 213.66 ± 1.6 °C; Boiling temperature at pressure P (18.66 kPa): 220.5 ± 2.6 °C; Boiling temperature at pressure P (22.39 kPa): 223.27 ± 2.3 °C |
| CCCCCCCCCCCCCCCCCC [octadecane] | 196.81 ± 1.9 | – |
| CCCCCCCC(=O)O [octanoic acid] | 144.04 ± 1.9 | – |
